The source of these data is a melting point compilation (Tetko et al.; mined from patent text by program, amines drawn as free bases though some values may be those of a salt).

Each structure is given as a SMILES string.

For `CC(=O)SCC(Cc1ccccc1)C(=O)NCc1ccc(C(=O)OCc2ccccc2)cc1` (centres undefined), the melting point (as a rule, the temperature of the solid-liquid transition) lay within 142 to 143 °C.

In the case of `CCOc1ccc2nc(Cl)c(C=NOC)cc2c1`, the melting point lay within 142 to 144 °C.

Regarding `CCOc1ccc(C(O)CN2CCOCC2)cc1-c1nc2c(C)cccc2c(=O)[nH]1` (centres undefined), the melting point lay in the range of 145 to 147 °C.

Consider `Cc1csc2ncc(C(O)CC(C)c3ccccc3)n12` (centres undefined), for which the melting point was 135 to 136 °C.

Compound `c1ccc2[nH]c3c4ccccc4nc-3cc2c1` registered a melting point of 249 to 251 °C.

Compound `CN(CCO)c1ccc(C=O)cc1` gave a melting point of 72 °C.

For `Nc1ccccc1C(=O)c1ccncc1`, the melting point lay within 153 to 161 °C.

For the compound `CN1CCSC1=NC(=S)Nc1ccccc1`, the melting point was 169 to 170 °C.

On to `COc1c(-c2cc3c(s2)CCCC3N=[N+]=[N-])ccc2c(=O)c(C(=O)O)cn(C3CC3)c12` (centres undefined), for which the melting point was in the range of 134 to 136 °C.

As for `CCOC(=O)c1cccc(N(CC(=O)OC(C)(C)C)C(=O)CNC(=O)Nc2cccc(C)c2)c1`, the melting point was 71 °C.

As for `CCC(C)(C)OC(=O)NC(C)(Cc1c[nH]c2ccccc12)C(=O)NCCc1cccnc1` (centres undefined), the melting point was 95 to 105 °C.

`Cn1c(-c2ccc(-c3cccnc3)cc2)cnc1[C@H](Cc1ccccn1)N(C=O)c1cc2cc(Br)ccc2o1` returned a melting point of 168 to 171 °C.

Consider `CC1(C)CC(NC(=O)Nc2ccccc2)c2cc(C#N)ccc2O1` (centres undefined), for which the melting point was 214 to 215 °C.

Compound `Nc1ccc2c(c1)NC(=O)C2` came in with a melting point of 194 °C.

In the case of `O=C(Nc1cccc(S(=O)(=O)N2CCCC2)c1)c1cnn2c(C(F)(F)F)cc(-c3ccc(Cl)cc3)nc12`, the melting point amounted to 252 °C.

In turn, `COc1ccc(-c2nc(S)[nH]c2-c2ccncc2)cc1` registered a melting point of 280 °C.

`COc1ccc(N2C(=O)[C@H](O)[C@@H]2CC2CCCCC2)cc1` came in with a melting point of 152 to 155 °C.

Regarding `O=c1c2ccccc2sc2c(O)ccc(Cl)c12`, the melting point fell in the range of 260 to 265 °C.

Consider `N#CC(CCN1CCC(C(=O)ON2C(=O)c3ccccc3C2=O)(c2ccccc2)CC1)(c1ccccc1)c1ccccc1`, for which the melting point was 156 to 158 °C.

Compound `Nc1ccc(-c2nc3n(c2-c2ccc(N)cc2)CCS3)cc1` yielded a melting point of 205 to 206 °C.

`CCOC(=O)[C@H](Cn1cc(C)c(SC#N)nc1=O)NS(=O)(=O)N(C)C` had a melting point of 158 °C.

The compound `O=C1CN2Cc3cc(OCCCCCCn4ccnc4)ccc3N=C2N1` came in with a melting point of 188 to 189 °C.

`CS(=O)c1c(C(=O)c2cnoc2C2CC2)ccc(Cl)c1Cl` (centres undefined): the melting point was 110 to 112 °C.

With `O=C1CCCC2=C1C(c1cccnc1)C1=C(CCS1)N2` (centres undefined), the melting point is above 250 °C.

`CCOc1ccc(-c2nc(-c3cc(CCO)c(O)c(C(=O)OC)c3)cs2)cc1OCC` came in with a melting point of 113 to 114 °C.

Take `Cc1ccc(C(=C/C=C/C(=O)Oc2ccc([N+](=O)[O-])cc2)c2ccc(C)cc2)cc1`: the melting point came out at 154 °C.

For `CCc1cc(C(=O)c2ccccc2Cl)c(-n2c(CNC(=O)c3ccc(Cl)c(Cl)c3)nnc2C2CCCCC2)s1`, the melting point was 206 to 208 °C.

For `CCCOC(C(Cc1ccc(Cl)cc1)n1cncn1)C1(C)COCOC1` (centres undefined), the melting point lay in the range of 94 to 96 °C.

The compound `CCCCc1ccc(C(=O)NCCN(C(C)=O)[C@@H](CCC(N)=O)C(=O)O)nc1` yielded a melting point of 156 to 158 °C.

Consider `CC(=O)OC1CSC(Oc2ccc(-c3ccc(C#N)nc3)nc2)C(OC(C)=O)C1OC(C)=O` (centres undefined), for which the melting point amounted to 247 °C.

In turn, `COC(=O)c1c(O)ccnc1C(F)(F)F` displayed a melting point of 78 to 82 °C.

Turning to `O=C(O)COc1c2c3c(ccnc3c3ccccc13)CCC2`, the melting point is 228 °C.

Consider `Cn1nc2c3c(c(Cl)ccc31)C(=O)c1cnccc1-2`, for which the melting point was in the range of 244 to 245 °C.

Compound `Cn1c(Nc2c(Cl)cccc2Cl)nc2cc(C(=O)NC3CCC(C)(C)CC3)ccc21` displayed a melting point of 189 to 190 °C.
